Converted amounts (≈) assume the structure as drawn. Read-outs that look alike come from different tables or passages of the source.
Legend:
M. suipneumoniae MS16 = test: Anti-mycoplasmal activity in vitro MIC; assay type: cell-based; details: Mesomycoplasma hyopneumoniae
M. suipneumoniae NB12 = test: Anti-mycoplasmal activity in vitro MIC; assay type: cell-based; details: Mesomycoplasma hyopneumoniae
[1] = Serum binding by ultrafiltration; assay type: in vitro ADME; details: pig, porcine serum, 8 mcg/ml, read-out: % bound to pig serum (converted)
Method: Serum binding was assessed by ultrafiltration of porcine serum containing compounds at 8 mcg/ml, and through an Amicon CF50A ultrafiltration cone. Separation of ultrafiltrate was achieved by centrifugation. Unbound concentrations of compound were measured in the ultrafiltrate by microbiological assay (B. subtilis ATCC 6633) against standards prepared in saline.

E. Coli NCT 10418 = test: Human bacteria MIC; assay type: cell-based; details: Escherichia coli
Method: (§1) The values were determined by serial dilutions in nutrient agar with 5% chocolated horse blood after incubations for 18 hours at 37° C.

Strep Group B 2788 = test: Human bacteria MIC; assay type: cell-based
Method: as §1

K. aerogenes A = test: Human bacteria MIC; assay type: cell-based; details: Klebsiella aerogenes
Method: as §1

Strep. pyogenes R80/421 = test: Human bacteria MIC; assay type: cell-based; details: Streptococcus pyogenes
Method: as §1

Ps. aeruginosa 10662 = test: Human bacteria MIC; assay type: cell-based
Method: as §1

P. mirabilis 889 = test: Human bacteria MIC; assay type: cell-based
Method: as §1

Staph. aureus Russell = test: Human bacteria MIC; assay type: cell-based; details: Staphylococcus aureus; Staph. aureus Russell; nutrient agar, 5% chocolated horse blood, 18 hours 37° C.; read-out: M.I.C.
Method: as §1

Strep. pneumoniae CN33 = test: Human bacteria MIC; assay type: cell-based; details: Streptococcus pneumoniae; Strep. pneumoniae CN33; nutrient agar, 5% chocolated horse blood, 18 hours 37° C.; read-out: M.I.C.
Method: as §1

Bacillus subtilis 6633 = test: Human bacteria MIC; assay type: cell-based; details: Bacillus subtilis, 6633, 18 h
Method: as §1

[2] = system: Corneybacterium xerosis 9755; test: Human bacteria MIC; assay type: cell-based
Method: as §1

[3] = system: Neisseria catarralis 1502; test: Human bacteria MIC; assay type: cell-based
Method: as §1

[4] = system: Pasteurella multocida 1633; test: Human bacteria MIC; assay type: cell-based
Method: as §1

Strep. faecalis I = test: Human bacteria MIC; assay type: cell-based; details: Enterococcus faecalis, nutrient agar, 5% chocolated horse blood, 18 hours 37° C.
Method: as §1

[5] = system: Haemophilus influenzae Q1; test: Human bacteria MIC; assay type: cell-based; details: Haemophilus influenzae, Q1, 18 h
Method: as §1

Staph. aureus W2827 = test: Human bacteria MIC; assay type: cell-based; details: Staphylococcus aureus
Method: as §1

E. coli ESS = test: Human bacteria MIC; assay type: cell-based; details: Escherichia coli, 18 h
Method: as §1

Staph. aureus Oxford = test: Human bacteria MIC; assay type: cell-based; details: Staphylococcus aureus; Staph. aureus Oxford; nutrient agar, 5% chocolated horse blood, 18 hours 37° C.; read-out: M.I.C.
Method: as §1

[6] = system: M. hyosynoviae ATCC 25591; test: Anti-mycoplasmal activity in vitro MIC; assay type: cell-based; details: 144 h
M. suipneumoniae HK (2) = test: Anti-mycoplasmal activity in vitro MIC; assay type: cell-based; details: Mesomycoplasma hyopneumoniae, 144 h
M. gallisepticum S6 = test: Anti-mycoplasmal activity in vitro MIC; assay type: cell-based; details: Mycoplasmoides gallisepticum
[7] = system: M. bovigenitalium ATCC 14173; test: Anti-mycoplasmal activity in vitro MIC; assay type: cell-based; details: 144 h
[8] = system: M. suipneumoniae ATCC 25095; test: Anti-mycoplasmal activity in vitro MIC; assay type: cell-based; details: Mesomycoplasma hyopneumoniae, ATCC25095, 144 h; M. suipneumoniae ATCC 25095; Friis broth, 0.9% agarose, 6 days 37° C.; read-out: M.I.C.
[9] = system: M. suipneumoniae PW/C/210; test: Anti-mycoplasmal activity in vitro MIC; assay type: cell-based; details: Mesomycoplasma hyopneumoniae, 144 h
M. suipneumoniae LABER = test: Anti-mycoplasmal activity in vitro MIC; assay type: cell-based; details: Mesomycoplasma hyopneumoniae, 144 h

SMILES: C/C(=C\C(=O)OC1CCC(=NO)CC1)C[C@@H]1OC[C@H](C[C@@H]2O[C@H]2[C@@H](C)[C@H](C)O)[C@@H](O)[C@H]1O (some centres unmarked) [Example 3, 4-Hydroxyiminocyclohexyl monate A]
- MIC (M. suipneumoniae MS16; MS16, 144 h): 0.25 µg/mL (≈ 0.549 µM)
- MIC (M. suipneumoniae NB12; 144 h, M. suipneumoniae NB12, Friis broth, 0.9% agarose, 6 days 37° C., read-out: M.I.C.): 0.5 µg/mL (≈ 1.1 µM)
- fraction unbound [1]: 0.355
- MIC (E. Coli NCT 10418; E. Coli NCT 10418, nutrient agar, 5% chocolated horse blood, 18 hours 37° C., read-out: M.I.C.): > 100 µg/mL
- MIC (Strep Group B 2788; 18 h): 1 µg/mL (≈ 2.2 µM)
- MIC (K. aerogenes A; K. aerogenes A, nutrient agar, 5% chocolated horse blood, 18 hours 37° C., read-out: M.I.C.): > 100 µg/mL
- MIC (Strep. pyogenes R80/421; Strep. pyogenes R80/421, nutrient agar, 5% chocolated horse blood, 18 hours 37° C., read-out: M.I.C.): 0.5 µg/mL (≈ 1.1 µM)
- MIC (Ps. aeruginosa 10662; Pseudomonas aeruginosa, Ps. aeruginosa 10662, nutrient agar, 5% chocolated horse blood, 18 hours 37° C., read-out: M.I.C.): > 100 µg/mL
- MIC (P. mirabilis 889; Proteus mirabilis, P. mirabilis 889, nutrient agar, 5% chocolated horse blood, 18 hours 37° C., read-out: M.I.C.): > 100 µg/mL
- MIC (Staph. aureus Russell): 5 µg/mL (≈ 11 µM)
- MIC (Strep. pneumoniae CN33): 0.5 µg/mL (≈ 1.1 µM)
- MIC (Bacillus subtilis 6633): 1 µg/mL (≈ 2.2 µM)
- MIC ([2]; Corneybacterium xerosis 9755, nutrient agar, 5% chocolated horse blood, 18 hours 37° C., read-out: M.I.C.): > 100 µg/mL
- MIC ([3]; Neisseria, 1502, 18 h): 1 µg/mL (≈ 2.2 µM)
- MIC ([4]; Pasteurella multocida, 1633, 18 h): 1 µg/mL (≈ 2.2 µM)
- MIC (Strep. faecalis I): 25 µg/mL (≈ 54.9 µM)
- MIC [5]: 0.25 µg/mL (≈ 0.549 µM)
- MIC (Staph. aureus W2827; Staph. aureus W2827, nutrient agar, 5% chocolated horse blood, 18 hours 37° C., read-out: M.I.C.): 5 µg/mL (≈ 11 µM)
- MIC (E. coli ESS): 1 µg/mL (≈ 2.2 µM)
- MIC (Staph. aureus Oxford): 2.5 µg/mL (≈ 5.49 µM)
- MIC [6]: 0.1 µg/mL (≈ 0.22 µM)
- MIC (M. suipneumoniae HK (2); M. suipneumoniae HK (2), Friis broth, 0.9% agarose, 6 days 37° C., read-out: M.I.C.): 0.5 µg/mL (≈ 1.1 µM)
- MIC (M. gallisepticum S6; S6, 144 h): 5 µg/mL (≈ 11 µM)
- MIC [7]: 0.025 µg/mL (≈ 0.0549 µM)
- MIC [8]: 0.5 µg/mL (≈ 1.1 µM)
- MIC [9]: 0.25 µg/mL (≈ 0.549 µM)
- MIC (M. suipneumoniae LABER): 0.25 µg/mL (≈ 0.549 µM)

SMILES: C/C(=C\C(=O)OCc1ccc(C=NO)o1)C[C@@H]1OC[C@H](C[C@@H]2O[C@H]2[C@@H](C)[C@H](C)O)[C@@H](O)[C@H]1O [Example 7, 5-Hydroxyiminomethylfurfuryl monate A]
- MIC (M. suipneumoniae MS16; 144 h, M. suipneumoniae MS16, Friis broth, 0.9% agarose, 6 days 37° C., read-out: M.I.C.): 0.5 µg/mL (≈ 1.07 µM)
- MIC (M. suipneumoniae NB12; NB12, 144 h): 1 µg/mL (≈ 2.14 µM)
- MIC (E. Coli NCT 10418; 18 h): > 100 µg/mL
- MIC (Strep Group B 2788; Strep Group B 2788, nutrient agar, 5% chocolated horse blood, 18 hours 37° C., read-out: M.I.C.): 2.5 µg/mL (≈ 5.35 µM)
- MIC (K. aerogenes A; 18 h): > 100 µg/mL
- MIC (Strep. pyogenes R80/421; R80/421, 18 h): 1 µg/mL (≈ 2.14 µM)
- MIC (Ps. aeruginosa 10662; Pseudomonas aeruginosa, 10662, 18 h): > 100 µg/mL
- MIC (P. mirabilis 889; Proteus mirabilis, 889, 18 h): > 100 µg/mL
- MIC (Staph. aureus Russell): 2.5 µg/mL (≈ 5.35 µM)
- MIC (Strep. pneumoniae CN33): 2.5 µg/mL (≈ 5.35 µM)
- MIC (Bacillus subtilis 6633): 1 µg/mL (≈ 2.14 µM)
- MIC ([2]; 18 h): > 100 µg/mL
- MIC ([3]; Neisseria catarralis 1502, nutrient agar, 5% chocolated horse blood, 18 hours 37° C., read-out: M.I.C.): 0.25 µg/mL (≈ 0.535 µM)
- MIC ([4]; Pasteurella multocida 1633, nutrient agar, 5% chocolated horse blood, 18 hours 37° C., read-out: M.I.C.): 2.5 µg/mL (≈ 5.35 µM)
- MIC (Strep. faecalis I): > 100 µg/mL
- MIC [5]: 0.25 µg/mL (≈ 0.535 µM)
- MIC (Staph. aureus W2827; W2827, 18 h): 5 µg/mL (≈ 10.7 µM)
- MIC (E. coli ESS): 2.5 µg/mL (≈ 5.35 µM)
- MIC (Staph. aureus Oxford): 2.5 µg/mL (≈ 5.35 µM)
- MIC [6]: 0.25 µg/mL (≈ 0.535 µM)
- MIC (M. suipneumoniae HK (2)): 1 µg/mL (≈ 2.14 µM)
- MIC (M. gallisepticum S6; 144 h, M. gallisepticum S6, Friis broth, 0.9% agarose, 6 days 37° C., read-out: M.I.C.): 5 µg/mL (≈ 10.7 µM)
- MIC [7]: 0.025 µg/mL (≈ 0.0535 µM)
- MIC [8]: 0.5 µg/mL (≈ 1.07 µM)
- MIC ([9]; M. suipneumoniae PW/C/210, Friis broth, 0.9% agarose, 6 days 37° C., read-out: M.I.C.): 0.5 µg/mL (≈ 1.07 µM)
- MIC (M. suipneumoniae LABER; M. suipneumoniae LABER, Friis broth, 0.9% agarose, 6 days 37° C., read-out: M.I.C.): 0.5 µg/mL (≈ 1.07 µM)

From US4362743A, “Antibacterial monic acid esters” (Beecham Group Limited, priority 1980, dated 1982)
